Laboratory results taken from patent publication US12637468B2, “Substituted [1,2,4]triazolo[4,3-b]pyridazines as GABAA receptor modulators” (SHANGHAI SIMR BIOTECHNOLOGY CO., LTD., priority 2019, dated 2026).
Converted amounts (≈) assume the structure as drawn.

Key:
α5-GABAA receptor = target: T1, α5-GABAA receptor (Homo sapiens, UniProt P18507+P31644); experiment: Cell-level screening: whole cell patch clamp, inverse agonist efficacy on α5-GABAA receptor expressed in HEK293; type: cell-based; settings: drug 100 nM, GABA 0.05 μM, HEK293 expressing α5, β3 and γ2 subunits, clamped at −60 mV; read-out: Compound inverse agonist efficacy %
T1 construct: expressed in transfected cells; host or cells: HEK293, monoclonal stably transfected line
T1 sequence (P31644 32-462): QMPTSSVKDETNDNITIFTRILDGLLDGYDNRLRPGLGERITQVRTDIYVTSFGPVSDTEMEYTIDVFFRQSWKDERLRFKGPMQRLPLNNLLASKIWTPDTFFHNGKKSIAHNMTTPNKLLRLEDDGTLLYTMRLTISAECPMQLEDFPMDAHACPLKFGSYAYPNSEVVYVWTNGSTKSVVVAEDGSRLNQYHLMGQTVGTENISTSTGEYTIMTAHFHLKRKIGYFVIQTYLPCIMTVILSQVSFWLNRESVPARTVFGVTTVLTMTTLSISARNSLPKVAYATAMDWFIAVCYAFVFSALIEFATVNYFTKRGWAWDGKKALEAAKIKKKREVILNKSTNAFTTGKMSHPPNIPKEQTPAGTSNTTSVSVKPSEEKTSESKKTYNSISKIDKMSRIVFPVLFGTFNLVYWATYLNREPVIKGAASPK
T1 sequence (P28472 26-473 partner): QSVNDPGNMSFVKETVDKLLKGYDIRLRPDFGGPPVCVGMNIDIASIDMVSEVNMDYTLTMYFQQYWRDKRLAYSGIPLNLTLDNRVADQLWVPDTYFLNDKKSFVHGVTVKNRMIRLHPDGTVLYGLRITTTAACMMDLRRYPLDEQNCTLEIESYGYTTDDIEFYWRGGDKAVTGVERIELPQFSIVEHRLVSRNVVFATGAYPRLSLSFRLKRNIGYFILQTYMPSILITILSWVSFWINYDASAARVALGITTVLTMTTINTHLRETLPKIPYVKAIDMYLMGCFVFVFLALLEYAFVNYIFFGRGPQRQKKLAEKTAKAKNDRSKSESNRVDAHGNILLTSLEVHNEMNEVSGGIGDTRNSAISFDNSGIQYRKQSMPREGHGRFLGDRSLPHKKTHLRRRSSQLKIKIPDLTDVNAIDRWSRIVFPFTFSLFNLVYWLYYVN
T1 sequence (P18507 40-467 isoform P18507-1 limits assumed): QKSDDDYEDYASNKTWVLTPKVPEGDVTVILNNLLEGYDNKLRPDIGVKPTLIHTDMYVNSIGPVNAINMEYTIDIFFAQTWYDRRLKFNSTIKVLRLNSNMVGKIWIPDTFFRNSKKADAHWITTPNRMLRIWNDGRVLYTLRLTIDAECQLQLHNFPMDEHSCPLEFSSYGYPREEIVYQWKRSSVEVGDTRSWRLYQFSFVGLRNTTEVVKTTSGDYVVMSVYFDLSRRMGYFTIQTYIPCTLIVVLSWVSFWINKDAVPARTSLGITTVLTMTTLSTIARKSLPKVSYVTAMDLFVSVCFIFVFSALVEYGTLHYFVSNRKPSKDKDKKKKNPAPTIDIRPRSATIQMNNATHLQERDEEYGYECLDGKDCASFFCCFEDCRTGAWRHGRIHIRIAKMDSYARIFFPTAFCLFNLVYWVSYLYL
Procedure, shortened: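 Whole-cell patch clamp at −60 mV on HEK293 stably expressing α5β3γ2, pH 7.4 extracellular/CsCl internal solutions. Current evoked by 0.05 μM GABA, then compound in GABA solution; screening at 100 nM, dose-response 0.3–300 nM. Inverse agonist efficacy as % change of GABA current.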

[1] = Thermodynamic solubility in simulated intestinal fluid (TS in FaSSIF); type: physicochemical; settings: thermodynamic from solid, 37° C.
Experimental: Simulated intestinal fluid FaSSIF: 54.76 mg of FaSSIF-V2 (Biorelevant, batch. V2FAS-0619-A, lot. V2FAS01) was weighed and added to 15 mL of a buffer solution. After dissolving, the solution was supplemented to 30 mL, and put at room temperature for 1 hour before use.
Waters e2695 HPLC high performance liquid chromatography, Mettler XSE105 analytical balance.
Firstly, a 10 mM stock solution was prepared with DMSO, and was diluted with a diluent (ACN: PB buffer 50:50) into 1 μM-200 μM as a standard solution.
Thermodynamic solubility in intestinal fluid (TS in FaSSIF) was simulated. About 0.3 mg of each sample was weighed and added to 1.5 mL of FaSSIF solution, with two parts in parallel, shaken at 1000 rpm at 37° C. for 4 hours, filtered. 1 mL of an initial filtrate was discarded, and 400 μL of the subsequent filtrate was taken. The filtrate was detected by high performance liquid chromatograph (UV).

Row | SMILES | inhibition at 0.1 µM (α5-GABAA receptor) [%] | solubility thermodynamic at 4 h [1] [µg/mL]
1 | COc1cc2nnc(-c3cc(C)on3)n2nc1OCc1ccc2c(n1)CCN(CC(=O)N(C)C)C2 [Embodiment 193] | 32.6 | 200 (≈ 418 µM)
2 | COCCn1ccc2nc(COc3nn4c(-c5noc(C)n5)nnc4cc3OC)ccc2c1=O [Embodiment 130] | 39.9 | 30.9 (≈ 66.5 µM)
3 | COc1cc2nnc(-c3cc(C)on3)n2nc1OCc1cccc(C2CCCNC2)n1 (stereo not drawn) [Embodiment 103] | 43.9 | 322 (≈ 764 µM)
4 | CCOCCCOc1ccc(COc2nn3c(-c4cc(C)on4)nnc3cc2OC)nn1 [Embodiment 168] | 37.5 | 59.9 (≈ 136 µM)
5 | COc1cc2nnc(-c3cc(C)on3)n2nc1OCc1ccncn1 [Embodiment 31] | 34.1 | 43.8 (≈ 129 µM)
6 | COc1cc2nnc(-c3cc(C)on3)n2nc1OCc1ccc2nn(C3CN(C)C3)cc2n1 [Embodiment 233] | 41.3 | 245 (≈ 547 µM)
7 | CCS(=O)(=O)N1CCc2nc(COc3nn4c(-c5cc(C)on5)nnc4cc3OC)ccc2C1 [Embodiment 210] | 43.4 | 47 (≈ 96.8 µM)
8 | COc1cc2nnc(-c3cc(C)on3)n2nc1OCc1ccc2c(n1)CCN(CCS(C)(=O)=O)C2 [Embodiment 113, 3-(7-Methoxy-6-((6-(2-(methylsulfonyl)ethyl)-5,6,7,8-tetrahydro-1,6-naphthalen-2-yl)methoxy)-[1,2,4]triazolo[4,3-b]pyridazin-3-yl)-5-methylisoxazole] | 36.7 | 191 (≈ 383 µM)
9 | COc1cc2nnc(-c3cc(C)on3)n2nc1OCc1cccnn1 [Embodiment 39] | 36.5 | 180 (≈ 531 µM)
10 | COc1cc2nnc(-c3cc(C)on3)n2nc1OCc1ccc(OCC2(C)COC2)cn1 [Embodiment 170] | 32.9 | 66.1 (≈ 151 µM)
11 | COCCCOc1cc(C)c(COc2nn3c(-c4cc(C)on4)nnc3cc2OC)nn1 [Embodiment 156] | 40.5 | 73.8 (≈ 167 µM)
12 | COc1cc2nnc(-c3cc(C)on3)n2nc1OCc1cccc2nccn12 [Embodiment 135] | 39.5 | 35.4 (≈ 93.8 µM)
13 | CCN1CC(F)(c2ccc(COc3nn4c(-c5cc(C)on5)nnc4cc3OC)nc2)C1 [Embodiment 127] | 41.8 | 223 (≈ 508 µM)
14 | COc1cc2nnc(-c3cc(C)on3)n2nc1OCc1ccc(OCCN2CCN(C)CC2)nn1 [Embodiment 163] | 45.2 | 179 (≈ 373 µM)
15 | COc1cc2nnc(-c3cc(C)on3)n2nc1OCc1ccc2c(n1)CCN(C1(CC#N)COC1)C2 [Embodiment 114, 2-(3-(2-(((7-Methoxy-3-(5-methylisoxazol-3-yl)-[1,2,4]triazolo[4,3-b]pyridazin-6-yl)oxy)methyl)-7,8-dihydro-1,6-naphthyridin-6(5H)-yl)oxetan-3-yl)acetonitrile] | 36 | 139 (≈ 284 µM)
16 | CCN1CCc2nc(COc3nn4c(-c5cc(C)on5)nnc4cc3OC)ccc2C1=O [Embodiment 109] | 47.3 | 54 (≈ 124 µM)
17 | COc1cc2nnc(-c3cc(C)on3)n2nc1OCc1ccc2nn(C3CCOC3)cc2n1 (stereo not drawn) [Embodiment 231] | 40.3 | 30.6 (≈ 68.1 µM)
18 | COCCN1Cc2ccc(COc3nn4c(-c5cc(C)on5)nnc4cc3OC)nc2C1 [Embodiment 99] | 33.7 | 222 (≈ 508 µM)
19 | COc1cc2nnc(-c3cc(C)on3)n2nc1OCc1ccc2c(n1)CCN(CC1CC1)C2 [Embodiment 82] | 47.9 | –
20 | COc1cc2nnc(-c3cc(C)on3)n2nc1OCc1ccc(C(=O)NCC(F)(F)F)cn1 [Embodiment 11, 6-(((7-Methoxy-3-(5-methylisoxazol-3-yl)-[1,2,4]triazolo[4,3-b]pyridazin-6-yl)oxy)methyl)-N-(2,2,2-trifluoroethyl)nicotinamide] | 35.4 | –
21 | COc1cc2nnc(-c3cc(C)on3)n2nc1OCc1cccc(N2CCOCC2)n1 [Embodiment 2] | 26.6 | –
22 | COc1cc2nnc(-c3cc(C)on3)n2nc1OCc1ccc2c(n1)CCN(C(=O)NCC(F)F)C2 [Embodiment 207] | 49.3 | –

More lines, now with the values ahead:

Row | inhibition at 0.1 µM (α5-GABAA receptor) [%] | solubility thermodynamic at 4 h [1] [µg/mL] | SMILES
23 | 32.9 | 137 (≈ 315 µM) | COc1cc2nnc(-c3cc(C)on3)n2nc1OCc1ccc2c(n1)CCN(C(C)=O)C2 [Embodiment 115]
24 | 32.5 | 60.3 (≈ 121 µM) | COc1cc2nnc(-c3cc(C)on3)n2nc1OCc1ccc2c(n1)CCN(Cc1ncccn1)C2=O [Embodiment 88, 2-(((7-Methoxy-3-(5-methylisoxazol-3-yl)-[1,2,4]triazolo[4,3-b]pyridazin-6-yl)oxy)methyl)-6-(pyrimidin-2-ylmethyl)-7,8-dihydro-1,6-naphthyridin-5(6H)-one]
25 | 62 | 146 (≈ 323 µM) | COCCN1Cc2nc(COc3nn4c(-c5cc(C)on5)nnc4cc3OC)ccc2C1=O [Embodiment 66]
26 | 38.8 | 83 (≈ 217 µM) | COCc1cccc(COc2nn3c(-c4cc(C)on4)nnc3cc2OC)n1 [Embodiment 50]
27 | 30.1 | 37.8 (≈ 94.9 µM) | COc1cc2nnc(-c3cc(C)on3)n2nc1OCc1nccc(OC)c1OC [Embodiment 7]
28 | 52.4 | 75.8 (≈ 150 µM) | COc1cc2nnc(-c3cc(C)on3)n2nc1OCc1ccc2c(n1)CCN(CC(=O)N1CCCC1)C2 [Embodiment 189]
29 | 40.6 | 60.3 (≈ 141 µM) | COCCCOc1ccc(COc2nn3c(-c4cc(C)on4)nnc3cc2OC)nc1 [Embodiment 9]
30 | 39 | 44.9 (≈ 99.5 µM) | COc1cc2nnc(-c3cc(C)on3)n2nc1OCc1ccc(OC2CC3(COC3)C2)nn1 [Embodiment 179]
31 | – | 43.5 (≈ 99.7 µM) | COCCn1cc2nc(COc3nn4c(-c5cc(C)on5)nnc4cc3OC)ccc2n1 [Embodiment 240]
32 | 39.3 | 212 (≈ 443 µM) | COCCCN1CCc2nc(COc3nn4c(-c5cc(C)on5)nnc4cc3OC)ccc2C1=O [Embodiment 107]
33 | 42.2 | 46.9 (≈ 114 µM) | COCCOc1ccc(COc2nn3c(-c4cc(C)on4)nnc3cc2OC)nc1 [Embodiment 6]
34 | 38.3 | 203 (≈ 481 µM) | COc1cc2nnc(-c3cc(C)on3)n2nc1OCc1cccc(C2CCNCC2)n1 [Embodiment 126]
35 | 36.3 | 519 (≈ 1310 µM) | CCNCc1ccc(COc2nn3c(-c4cc(C)on4)nnc3cc2OC)nc1 [Embodiment 21]
36 | 52.2 | 34 (≈ 65.5 µM) | COc1cc2nnc(-c3cc(C)on3)n2nc1OCc1ccc2c(n1)CCN(C(=O)NCC(F)(F)F)C2 [Embodiment 208]
37 | 44.2 | 48.7 (≈ 132 µM) | COc1ccc(COc2nn3c(-c4cc(C)on4)nnc3cc2OC)nn1 [Embodiment 43]
38 | 52.4 | 318 (≈ 644 µM) | COCCCC(=O)N1CCc2nc(COc3nn4c(-c5cc(C)on5)nnc4cc3OC)ccc2C1 [Embodiment 112]
39 | 34.9 | 237 (≈ 562 µM) | COc1cc2nnc(-c3cc(C)on3)n2nc1OCc1ccc2nnc(C(C)C)n2n1 [Embodiment 214]
40 | 47.3 | 30.8 (≈ 73.1 µM) | COc1cc2nnc(-c3cc(C)on3)n2nc1OCc1ccc2c(n1)CN(C(C)C)C2 [Embodiment 102]
41 | 57.3 | 53.9 (≈ 130 µM) | COCCOc1cnc(COc2nn3c(-c4cc(C)on4)nnc3cc2OC)cn1 [Embodiment 85]
42 | 36.6 | 237 (≈ 538 µM) | COc1cc2nnc(-c3cc(C)on3)n2nc1OCc1ccc(OCC2CCOC2)nn1 (stereo not drawn) [Embodiment 162]
43 | 52.1 | 167 (≈ 425 µM) | COc1cc2nnc(-c3cc(C)on3)n2nc1OCc1ccc2nnc(C)n2n1 [Embodiment 216]
44 | 25.9 | 123 (≈ 290 µM) | COc1cc2nnc(-c3cc(C)on3)n2nc1OCc1ccc(=O)n(CCCC#N)n1 [Embodiment 36]
45 | 35.3 | 70 (≈ 166 µM) | CCN1Cc2ccc(COc3nn4c(-c5cc(C)on5)nnc4cc3OC)nc2C1=O [Embodiment 100]
46 | 48.7 | – | COc1cc2nnc(-c3cc(CO)on3)n2nc1OCc1ccccn1 [Embodiment 46, (3-(7-Methoxy-6-(pyridin-2-ylmethoxy)-[1,2,4]triazolo[4,3-b]pyridazin-3-yl]isoxazol-5-yl)methanol]
47 | 45.8 | – | COc1cnc(COc2nn3c(-c4cc(C)on4)nnc3cc2OC)cc1OC [Embodiment 60]
48 | 72.6 | – | COc1cc2nnc(-c3cc(C)on3)n2nc1OCc1ccc2nc(C3CCOCC3)cn2n1 [Embodiment 212]
49 | 57.9 | – | COc1cc2nnc(-c3cc(C)on3)n2nc1OCc1ccc2nn(C)cc2n1 [Embodiment 237]
50 | 36.8 | – | COc1cc2nnc(-c3cc(C)on3)n2nc1OCc1ccc2nnc(C3CCOCC3)n2n1 [Embodiment 215]
